According to paper PMC6338644 (The FASEB Journal, 2018):
Where “and” joins values, the source holds several entries; their conditions need not be identical. Equal values may be shown once. Where a name gives a salt, the structure may show the parent alone. Read-outs that look alike come from different tables or passages of the source.

Key:
[1] = target: T1, phosphatase and tensin homolog (PTEN) (Homo sapiens, UniProt P60484); assay: Manual malachite green phosphate assay, PTEN activity; type: biochemical
T1 construct: purchased Signalchem

[2] = target: T2, His-tagged human SHIP1 phosphatase domain (Homo sapiens, UniProt Q92835); assay: Malachite green phosphate assay, recombinant SHIP1 phosphatase domain (High Throughput Biomedicine Unit); type: biochemical; conditions: for IC50: purified His-tagged phosphatase domain
T2 construct: Recombinant His-tagged human SHIP2 and SHIP1 phosphatase domains were produced as previously described; His; made in house
T2 sequence (Q92835 399-715 limits assumed): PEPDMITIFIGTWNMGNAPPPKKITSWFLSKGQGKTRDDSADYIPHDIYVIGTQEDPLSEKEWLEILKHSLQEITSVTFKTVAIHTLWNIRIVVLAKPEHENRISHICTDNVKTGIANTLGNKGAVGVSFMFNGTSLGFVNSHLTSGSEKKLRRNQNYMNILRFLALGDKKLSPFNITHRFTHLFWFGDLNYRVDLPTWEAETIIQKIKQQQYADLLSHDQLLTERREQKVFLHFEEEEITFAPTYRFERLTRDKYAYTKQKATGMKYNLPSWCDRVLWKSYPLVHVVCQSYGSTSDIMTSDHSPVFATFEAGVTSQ
Description: (§1) Recombinant His-tagged human SHIP2 and SHIP1 phosphatase domains were produced as previously described ([17]). […] Immunocomplexes were bound to protein G-Sepharose beads at +4°C for 2 h and washed 3 times with malachite green phosphate assay buffer {10 mM 4-(2-hydroxyethyl)-1-piperazineethanesulfonic acid (HEPES), pH 7.25, 6 mM MgCl2, 0.1% 3-[(3-cholamidopropyl)dimethylammonio]-1-propanesulfonate (CHAPS), 250 mM sucrose, and 0.25 mM EDTA}.
(§2) The catalytic activities of the recombinant SHIP2 and SHIP1 phosphatase domains were determined by malachite green phosphate assay at the High Throughput Biomedicine Unit (University of Helsinki) using D-myo-PI(3,4,5)P3 (Echelon Biosciences, Salt Lake City, UT, USA). Different volumes, resulting in desired final concentrations of inhibitors, were transferred to the wells of 384-well plates by using the Echo550 acoustic dispenser (Labcyte, San Jose, CA, USA). Recombinant protein (100 ng) in reaction buffer {10 mM HEPES, pH 7.25, 6 mM MgCl2, 0.1% CHAPS, 250 mM sucrose, and 0.25 mM EDTA} was placed in each well (7.5 µl), and the plates were preincubated at room temperature for 15 min. The phosphatase reaction was started by adding PI(3,4,5)P3 diluted in the reaction buffer (7.5 µl) to each well to reach a final concentration of 100 µM PI(3,4,5)P3 in the 15 µl reaction volume. The plates were incubated at room temperature for 20 min, after which, 15 µl BIOMOL green reagent (Biomol, Plymouth Meeting, PA, USA) was added to each well, and then the plates were incubated for another 25 min at room temperature. Absorbance was measured at 620 nm using a Pherastar FS plate reader (BMG Labtech, Offenburg, Germany). For the manual malachite green phosphate assay in 96-well plates [see Fig. 1; and activity measurement of phosphatase and tensin homolog (PTEN; Signalchem, Richmond, BC, Canada)], the reaction volume was increased to 50 µl, and 100 µl Biomol Green Reagent was added. The catalytic activity of SHIP2 immunoprecipitated from cell and tissue lysates was determined as in Saurus et al. ([22]), omitting SHIP2 inhibitors in lysis buffer, immunoprecipitation reaction, wash, and assay buffers. AS1949490 was synthesized, as described in Supplemental Fig. S1A, or purchased from Tocris Bioscience (Bristol, United Kingdom).

[3] = system: SHIP2 immunoprecipitated from the lysates of L6 myotubes; type: cell-based, rat; conditions: 20–24 h
Description: (§3) Immortalized human podocytes were maintained as previously described ([10]). […] Podocytes were lysed as previously described ([21]).
as §1, §2
Hydrogen bond is shown in green. Hydrophobic residues are shown in gray, positive-charged residues in blue, and negative-charged residues in red. […] The catalytic activity of SHIP2 was measured by manual malachite green phosphate assay.

[4] = target: T3, SHIP2 immunoprecipitated from the lysates of podocytes (Homo sapiens, UniProt O15357); assay: Activity of SHIP2 immunoprecipitated from podocytes; type: cell-based; conditions: 20–24 h
T3 construct: endogenous in cells; host or cells: immortalized human podocytes
T3 sequence (O15357 1-1258): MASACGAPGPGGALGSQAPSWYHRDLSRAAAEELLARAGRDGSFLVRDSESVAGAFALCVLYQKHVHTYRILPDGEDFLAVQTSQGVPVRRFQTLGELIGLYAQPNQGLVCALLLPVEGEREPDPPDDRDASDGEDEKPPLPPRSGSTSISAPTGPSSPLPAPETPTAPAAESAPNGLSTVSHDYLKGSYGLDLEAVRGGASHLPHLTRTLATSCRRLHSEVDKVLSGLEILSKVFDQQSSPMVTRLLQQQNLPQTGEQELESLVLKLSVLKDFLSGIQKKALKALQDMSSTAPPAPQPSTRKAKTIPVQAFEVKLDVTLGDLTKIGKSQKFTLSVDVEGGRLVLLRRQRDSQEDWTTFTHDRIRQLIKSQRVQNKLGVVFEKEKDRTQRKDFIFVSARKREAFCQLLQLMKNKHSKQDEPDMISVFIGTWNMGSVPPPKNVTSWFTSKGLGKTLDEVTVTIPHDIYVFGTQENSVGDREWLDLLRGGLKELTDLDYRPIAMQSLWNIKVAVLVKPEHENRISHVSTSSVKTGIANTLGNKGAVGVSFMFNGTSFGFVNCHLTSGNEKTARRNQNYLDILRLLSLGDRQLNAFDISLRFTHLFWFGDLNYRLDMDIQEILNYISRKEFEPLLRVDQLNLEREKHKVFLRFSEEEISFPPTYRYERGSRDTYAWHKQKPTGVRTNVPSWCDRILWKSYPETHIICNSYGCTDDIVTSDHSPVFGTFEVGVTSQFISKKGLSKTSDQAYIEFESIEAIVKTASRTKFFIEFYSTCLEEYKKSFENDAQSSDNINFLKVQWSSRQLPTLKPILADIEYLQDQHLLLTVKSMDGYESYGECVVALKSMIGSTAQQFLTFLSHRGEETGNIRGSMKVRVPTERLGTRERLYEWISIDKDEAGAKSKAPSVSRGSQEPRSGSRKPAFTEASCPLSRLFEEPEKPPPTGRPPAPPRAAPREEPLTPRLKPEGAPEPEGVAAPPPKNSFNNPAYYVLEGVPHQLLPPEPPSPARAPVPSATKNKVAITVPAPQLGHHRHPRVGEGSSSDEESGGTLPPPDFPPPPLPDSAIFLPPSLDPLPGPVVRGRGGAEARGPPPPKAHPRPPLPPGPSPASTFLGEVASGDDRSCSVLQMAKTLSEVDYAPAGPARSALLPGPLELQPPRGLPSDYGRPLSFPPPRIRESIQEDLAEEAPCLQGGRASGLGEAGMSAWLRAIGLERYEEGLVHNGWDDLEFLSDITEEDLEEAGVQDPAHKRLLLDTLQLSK
Description: as §3, §1
as §2, with “The plates were incubated at room temperature for 20 min, after which, 15 µl BIOMOL green reagent (Biomol, Plymouth Meeting, PA, USA) was added to each well, and then the plates were incubated for another 25 min at room temperature.” left out, “For the manual malachite green phosphate assay in 96-well plates [see Fig. 1; and activity measurement of phosphatase and tensin homolog (PTEN; Signalchem, Richmond, BC, Canada)], the reaction volume was increased to 50 µl, and 100 µl Biomol Green Reagent was added.” left out, “AS1949490 was synthesized, as described in Supplemental Fig. S1A, or purchased from Tocris Bioscience (Bristol, United Kingdom).” left out
Hydrogen bond is shown in green. […] The catalytic activity of SHIP2 was measured by manual malachite green phosphate assay.

T1 sequence (P60484 whole entry, species assumed): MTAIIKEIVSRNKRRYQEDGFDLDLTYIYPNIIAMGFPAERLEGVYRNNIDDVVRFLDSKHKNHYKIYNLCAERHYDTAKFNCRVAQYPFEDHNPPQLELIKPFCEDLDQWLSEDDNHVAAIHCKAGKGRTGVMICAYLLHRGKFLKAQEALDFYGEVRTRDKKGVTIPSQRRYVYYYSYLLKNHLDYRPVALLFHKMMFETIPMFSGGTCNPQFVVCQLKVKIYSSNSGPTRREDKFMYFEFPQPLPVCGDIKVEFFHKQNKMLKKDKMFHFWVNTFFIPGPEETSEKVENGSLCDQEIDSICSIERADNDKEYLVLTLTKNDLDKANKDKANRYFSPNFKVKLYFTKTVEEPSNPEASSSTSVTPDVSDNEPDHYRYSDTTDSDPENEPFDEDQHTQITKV

C[C@H](NC(=O)c1sccc1OCc1ccc(Cl)cc1)c1ccccc1 [AS1949490]
PTEN Inhibition efficiency ([1]; inhibitors at 100 µM concentration): 0%
IC50 ([1]; manual assay): > 50 µM
SHIP1 Inhibition efficiency ([2]; inhibitors at 100 µM concentration, 100 µM): 12% and 11.8%
IC50 [2]: > 50 µM
reduction of SHIP2 activity in myotubes ([3]; 20 µM): ~30%
reduction of SHIP2 activity in podocytes ([4]; 20 µM): 20–30%

CN(C)C(=N)N=C(N)N [Metformin, 1,1-Dimethylbiguanide hydrochloride]
inhibition of PTEN (in words) [1]: does not inhibit
PTEN IC50 ([1]; manual assay): >50 µM
inhibition of SHIP1 (in words) [2]: does not inhibit
inhibition at 100 µM ([2]; inhibitors at 100 µM concentration, read-out: SHIP1 Inhibition efficiency): 11.1%
IC50 [2]: > 50 µM
reduction of SHIP2 activity in myotubes ([3]; 20 µM): ~30%
reduction of SHIP2 activity in myotubes ([3]; 1 mM): 24%
SHIP2 overexpression-induced SHIP2 activity in myotubes ([3]; L6 myotubes overexpressing SHIP2, 1 mM): to the level in the control
reduction of SHIP2 activity in podocytes ([4]; 20 µM): 20–30%
reduction of SHIP2 activity in podocytes ([4]; 1 mM): 14%
